# Reference: ChEMBL document CHEMBL5365452, “Discovery of (S)-N1-(thiazol-2-yl) pyrrolidine-1,2-dicarboxamide derivatives targeting PI3Ka/HDAC6 for the treatment of cancer” (Bioorg Med Chem Lett, 2023)
# Experiments:
# Histone deacetylase 11 = biological target: T1, Histone deacetylase 11 (Homo sapiens, UniProt Q96DB2); assay: Inhibition of HDAC11 (unknown origin)
# T1 sequence (Q96DB2 whole entry): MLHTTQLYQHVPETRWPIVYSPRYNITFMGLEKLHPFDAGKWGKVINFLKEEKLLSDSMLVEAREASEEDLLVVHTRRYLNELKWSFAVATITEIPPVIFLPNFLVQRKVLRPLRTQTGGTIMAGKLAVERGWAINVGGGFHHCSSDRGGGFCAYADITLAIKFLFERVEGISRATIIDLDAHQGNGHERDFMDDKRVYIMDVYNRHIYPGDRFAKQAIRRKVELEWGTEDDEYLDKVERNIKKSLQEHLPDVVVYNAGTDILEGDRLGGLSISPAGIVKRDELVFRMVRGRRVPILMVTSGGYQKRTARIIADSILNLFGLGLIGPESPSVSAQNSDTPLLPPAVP
# Histone deacetylase 8 = biological target: T2, Histone deacetylase 8 (Homo sapiens, UniProt Q9BY41); assay: Inhibition of HDAC8 (unknown origin)
# T2 sequence (Q9BY41 whole entry): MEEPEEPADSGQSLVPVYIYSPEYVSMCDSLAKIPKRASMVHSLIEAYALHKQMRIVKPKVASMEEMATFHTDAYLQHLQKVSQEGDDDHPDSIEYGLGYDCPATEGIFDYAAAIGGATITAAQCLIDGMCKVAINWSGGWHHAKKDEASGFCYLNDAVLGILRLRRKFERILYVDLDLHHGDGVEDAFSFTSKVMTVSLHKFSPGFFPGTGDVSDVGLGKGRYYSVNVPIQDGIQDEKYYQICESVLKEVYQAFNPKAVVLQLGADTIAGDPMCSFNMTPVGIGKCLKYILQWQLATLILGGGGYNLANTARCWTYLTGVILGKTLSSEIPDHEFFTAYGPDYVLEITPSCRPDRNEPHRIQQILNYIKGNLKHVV
# [1] = biological target: Phosphatidylinositol 4,5-bisphosphate 3-kinase catalytic subunit beta isoform (Homo sapiens, UniProt P42338); assay: Inhibition of PI3Kbeta (unknown origin)
# Phosphatidylinositol 4,5-bisphosphate 3-kinase catalytic subunit beta isoform, sequence (P42338 whole entry, canonical isoform): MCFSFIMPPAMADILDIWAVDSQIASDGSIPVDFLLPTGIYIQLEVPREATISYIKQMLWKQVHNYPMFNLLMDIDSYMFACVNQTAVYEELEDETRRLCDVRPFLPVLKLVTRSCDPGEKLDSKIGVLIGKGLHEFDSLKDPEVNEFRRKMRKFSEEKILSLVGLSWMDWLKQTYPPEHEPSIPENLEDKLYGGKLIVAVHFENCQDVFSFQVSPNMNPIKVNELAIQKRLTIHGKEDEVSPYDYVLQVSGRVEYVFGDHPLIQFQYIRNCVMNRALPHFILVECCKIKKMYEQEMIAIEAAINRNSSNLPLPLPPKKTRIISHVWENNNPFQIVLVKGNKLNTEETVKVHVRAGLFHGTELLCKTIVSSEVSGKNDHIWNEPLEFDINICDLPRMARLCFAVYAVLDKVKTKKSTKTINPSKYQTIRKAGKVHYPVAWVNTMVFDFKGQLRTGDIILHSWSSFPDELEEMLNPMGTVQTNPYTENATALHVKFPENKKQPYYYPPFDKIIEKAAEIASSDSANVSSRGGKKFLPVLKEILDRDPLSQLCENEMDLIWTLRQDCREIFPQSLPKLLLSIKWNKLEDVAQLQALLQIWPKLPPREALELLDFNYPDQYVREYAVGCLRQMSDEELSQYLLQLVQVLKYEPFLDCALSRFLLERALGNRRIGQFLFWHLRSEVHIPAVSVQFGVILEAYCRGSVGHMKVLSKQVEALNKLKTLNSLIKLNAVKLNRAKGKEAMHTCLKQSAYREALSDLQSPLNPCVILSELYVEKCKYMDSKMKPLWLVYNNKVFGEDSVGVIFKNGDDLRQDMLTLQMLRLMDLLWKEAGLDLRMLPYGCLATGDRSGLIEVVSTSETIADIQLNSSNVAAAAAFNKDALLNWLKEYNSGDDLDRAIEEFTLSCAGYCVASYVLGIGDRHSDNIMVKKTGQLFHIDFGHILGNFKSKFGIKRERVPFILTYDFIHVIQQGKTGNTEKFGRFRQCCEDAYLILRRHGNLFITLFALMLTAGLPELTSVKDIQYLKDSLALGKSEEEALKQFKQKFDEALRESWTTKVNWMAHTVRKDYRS
# [2] = biological target: T3, Phosphatidylinositol 4,5-bisphosphate 3-kinase catalytic subunit delta isoform (Homo sapiens, UniProt O00329); assay: Inhibition of PI3Kdelta (unknown origin)
# T3 sequence (O00329 whole entry): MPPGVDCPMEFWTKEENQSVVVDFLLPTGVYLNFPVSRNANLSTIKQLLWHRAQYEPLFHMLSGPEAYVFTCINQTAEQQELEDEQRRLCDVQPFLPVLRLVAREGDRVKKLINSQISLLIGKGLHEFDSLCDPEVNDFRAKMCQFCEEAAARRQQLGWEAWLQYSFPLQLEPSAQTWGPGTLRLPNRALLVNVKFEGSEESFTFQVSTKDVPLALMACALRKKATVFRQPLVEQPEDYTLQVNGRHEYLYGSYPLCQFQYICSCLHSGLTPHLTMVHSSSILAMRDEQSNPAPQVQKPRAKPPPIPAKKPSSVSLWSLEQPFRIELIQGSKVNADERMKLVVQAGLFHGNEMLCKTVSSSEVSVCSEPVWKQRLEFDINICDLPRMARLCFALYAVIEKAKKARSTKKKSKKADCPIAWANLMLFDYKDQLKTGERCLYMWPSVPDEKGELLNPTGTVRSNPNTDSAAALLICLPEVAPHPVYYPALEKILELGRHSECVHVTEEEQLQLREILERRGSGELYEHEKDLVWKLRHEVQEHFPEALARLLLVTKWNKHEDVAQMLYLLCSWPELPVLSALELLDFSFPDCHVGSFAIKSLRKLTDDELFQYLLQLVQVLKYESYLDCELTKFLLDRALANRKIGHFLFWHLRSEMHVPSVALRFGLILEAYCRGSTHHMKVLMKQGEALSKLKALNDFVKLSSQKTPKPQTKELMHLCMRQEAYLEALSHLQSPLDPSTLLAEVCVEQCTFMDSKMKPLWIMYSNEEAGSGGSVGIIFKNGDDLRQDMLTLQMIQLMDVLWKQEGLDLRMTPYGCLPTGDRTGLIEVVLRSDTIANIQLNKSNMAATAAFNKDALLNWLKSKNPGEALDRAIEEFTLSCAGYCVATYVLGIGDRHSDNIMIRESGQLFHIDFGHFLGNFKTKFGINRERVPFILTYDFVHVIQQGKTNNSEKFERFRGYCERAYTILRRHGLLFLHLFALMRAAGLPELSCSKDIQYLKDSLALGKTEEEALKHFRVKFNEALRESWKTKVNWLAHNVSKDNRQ
# Histone deacetylase 1 = Histone deacetylase 1 (Homo sapiens, UniProt Q13547); assay: Inhibition of HDAC1 (unknown origin)
# Histone deacetylase 1, sequence (Q13547 whole entry, canonical isoform): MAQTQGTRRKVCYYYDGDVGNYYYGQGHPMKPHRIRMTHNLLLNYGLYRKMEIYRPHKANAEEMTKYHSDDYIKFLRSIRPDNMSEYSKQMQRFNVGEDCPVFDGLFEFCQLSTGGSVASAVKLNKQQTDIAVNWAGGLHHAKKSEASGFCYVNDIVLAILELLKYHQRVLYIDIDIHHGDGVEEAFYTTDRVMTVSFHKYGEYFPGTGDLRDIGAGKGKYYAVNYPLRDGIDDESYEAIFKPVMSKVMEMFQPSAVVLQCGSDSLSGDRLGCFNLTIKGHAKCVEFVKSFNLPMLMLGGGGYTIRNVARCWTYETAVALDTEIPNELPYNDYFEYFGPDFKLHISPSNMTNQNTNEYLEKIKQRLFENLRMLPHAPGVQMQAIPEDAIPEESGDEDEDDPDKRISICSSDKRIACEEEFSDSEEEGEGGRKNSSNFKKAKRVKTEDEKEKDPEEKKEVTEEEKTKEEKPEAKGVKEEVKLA
# [3] = biological target: Phosphatidylinositol 4,5-bisphosphate 3-kinase catalytic subunit gamma isoform (Homo sapiens, UniProt P48736); assay: Inhibition of PI3Kgamma (unknown origin)
# Phosphatidylinositol 4,5-bisphosphate 3-kinase catalytic subunit gamma isoform, sequence (P48736 whole entry, canonical isoform): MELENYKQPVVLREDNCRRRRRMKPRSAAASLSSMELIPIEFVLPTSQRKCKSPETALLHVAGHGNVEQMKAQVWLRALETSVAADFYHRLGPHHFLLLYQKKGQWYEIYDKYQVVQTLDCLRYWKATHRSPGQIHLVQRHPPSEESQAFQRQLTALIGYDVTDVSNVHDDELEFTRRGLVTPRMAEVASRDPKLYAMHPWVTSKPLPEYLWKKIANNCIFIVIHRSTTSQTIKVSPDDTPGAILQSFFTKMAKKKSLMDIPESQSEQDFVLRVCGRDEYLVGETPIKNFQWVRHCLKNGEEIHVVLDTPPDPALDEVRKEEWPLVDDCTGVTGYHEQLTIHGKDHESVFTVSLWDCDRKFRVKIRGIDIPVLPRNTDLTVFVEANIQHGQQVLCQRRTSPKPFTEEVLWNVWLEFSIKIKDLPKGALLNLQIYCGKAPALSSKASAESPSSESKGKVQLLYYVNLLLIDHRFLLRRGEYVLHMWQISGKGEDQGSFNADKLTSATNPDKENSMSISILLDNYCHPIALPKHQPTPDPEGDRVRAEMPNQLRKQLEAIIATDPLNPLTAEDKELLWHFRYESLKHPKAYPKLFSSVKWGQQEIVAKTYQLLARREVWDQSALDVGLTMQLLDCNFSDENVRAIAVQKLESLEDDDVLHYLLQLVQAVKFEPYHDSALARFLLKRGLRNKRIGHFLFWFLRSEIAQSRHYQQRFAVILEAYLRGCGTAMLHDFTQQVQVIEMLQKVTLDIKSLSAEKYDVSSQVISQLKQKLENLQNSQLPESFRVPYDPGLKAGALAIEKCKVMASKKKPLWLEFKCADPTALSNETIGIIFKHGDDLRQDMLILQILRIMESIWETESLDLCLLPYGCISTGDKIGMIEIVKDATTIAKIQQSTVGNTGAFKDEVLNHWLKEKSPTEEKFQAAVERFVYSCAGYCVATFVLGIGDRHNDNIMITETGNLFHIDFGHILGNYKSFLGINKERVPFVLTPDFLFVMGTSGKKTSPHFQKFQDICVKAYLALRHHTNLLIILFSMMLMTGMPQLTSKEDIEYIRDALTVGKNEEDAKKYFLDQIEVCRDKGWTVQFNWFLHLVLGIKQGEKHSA
# T47D = assay: Antiproliferative activity against human T47D cells
# MCF7 = assay: Antiproliferative activity against human MCF7 cells
# L-363 = assay: Antiproliferative activity against human L-363 cells
IC50 (Histone deacetylase 11),IC50 (Histone deacetylase 8),IC50 [1],IC50 [2],IC50 (Histone deacetylase 1),IC50 [3],IC50 (T47D),IC50 (MCF7),SMILES,IC50 (L-363)
586 nM,> 2000 nM,880 nM,42 nM,> 2000 nM,285 nM,–,–,Cc1nc(NC(=O)N2C[C@H](NS(=O)(=O)Cc3ccc(C(=O)NO)cc3)C[C@H]2C(N)=O)sc1-c1ccnc(C(C)(C)C(F)(F)F)c1,–
–,–,–,–,–,–,2300 nM,250 nM,Cc1nc(NC(=O)N2CCC[C@H]2C(N)=O)sc1-c1ccnc(C(C)(C)C(F)(F)F)c1 [ALPELISIB],260 nM
–,–,–,–,–,–,–,3560 nM,O=C(CCCCCCC(=O)Nc1ccccc1)NO [VORINOSTAT],–
> 2000 nM,> 2000 nM,> 1000 nM,214 nM,471 nM,318 nM,–,–,Cc1nc(NC(=O)N2C[C@H](NC(=O)c3ccc(C(=O)NO)cn3)C[C@H]2C(N)=O)sc1-c1ccnc(C(C)(C)C(F)(F)F)c1,–
